# Results published in patent publication US20250019385A1, “SPIROCYCLIC ANNULATED 2-AMINO-3-CYANO THIOPHENES AND DERIVATIVES FOR THE TREATMENT OF CANCER” (Boehringer Ingelheim International GmbH, priority 2023, published 2025).
# Tested on: Ba/F3 cells KRAS G12C
# Experiment: Ba/F3 proliferation assay (KRAS G12C)
# Type: cell-based
# Details: Mus musculus, BaF3, 72 h, AlamarBlue viability
# Procedure: (§1) Ba/F3 cells are ordered from DSMZ (ACC300, Lot17) and grown in RPMI-1640 (ATCC 30-2001)+10% FCS+10 ng/mL IL-3 at 37° C. in 5% […] atmosphere. Plasmids containing KRASG12 mutants (i.e. […], G12C, G12V) are obtained from GeneScript. To generate KRASG12-dependent Ba/F3 models, Ba/F3 cells are transduced with retroviruses containing vectors that harbor KRASG12 isoforms. Platinum-E cells (Cell Biolabs) are used for retrovirus packaging. Retrovirus is added to Ba/F3 cells. To ensure infection, 4 μg/mL polybrene is added and cells are spinfected. Infection efficiency is confirmed by measuring GFP-positive cells using a cell analyzer. Cells with an infection efficiency of 10% to 20% are further cultivated and puromycin selection with 1 μg/mL is initiated. As a control, parental Ba/F3 cells are used to show selection status. Selection is considered successful when parental Ba/F3 cells cultures died. To evaluate the transforming potential of KRASG12 mutations, the growth medium is no longer supplemented with IL-3. Ba/F3 cells harboring the empty vector are used as a control. Approximately ten days before conducting the experiments, puromycin is left out.
# (§2) For proliferation assays, Ba/F3 cells are seeded into 384-well plates at 1.5×1 (M cells/60 μL in growth media (RPMI-1640+10% FCS). Compounds (10 mM stock in DMSO) are added at logarithmic dose series using the ECHO acoustic liquid handler system (Beckman Coulter), normalizing for added DMSO and including DMSO controls. All compound treatments are performed in technical duplicates. For the TO time point measurement, untreated cells are analyzed at the time of compound addition. Treated cells are incubated for 72 h at 37° C. with 5% CO2 and cell viability is measured in the PerkinElmer Envision Multimode Reader using AlamarBlue™ (ThermoFisher) viability stain. Viability (stated as percent of control) is defined as relative fluorescence units RFU of each well divided by the RFU of cells in DMSO controls. IC50 values are determined from viability measurements by non-linear regression using a four-parameter model.
row,SMILES,IC50 [nM]
1,C[C@H](Oc1nc(-c2noc3c2CCC[C@@]32CCCc3sc(N)c(C#N)c32)nc2c1n(C)c(=O)n2[C@@H]1CCOC1)[C@@H]1CCCN1C [II-2],4
2,C[C@H](Oc1nc(-c2noc3c2CCC[C@@]32CCCc3sc(N)c(C#N)c32)nc2c1CN(c1ncccn1)[C@@]21CCOC1)[C@@H]1CCCN1C [II-7b],61
3,C[C@H](Oc1nc(-c2noc3c2CCC[C@@]32SCCc3sc(N)c(C#N)c32)nc2c1COC[C@]21CCOC1)[C@@H]1CCCN1C [II-16],1
4,CO[C@H]1CCN(C)[C@@H]1[C@H](C)Oc1nc(-c2onc3c2CCC[C@@]32CCCc3sc(N)c(C#N)c32)nc2c1n(C)c(=O)n2[C@H]1COC[C@@H](C)C1 [I-51],5
5,CO[C@@H]1C[C@@H]([C@H](C)Oc2nc(-c3onc4c3CCC[C@@]43CCCc4sc(N)c(C#N)c43)nc3c2n(C)c(=O)n3[C@H]2COC[C@@H](C)C2)N(C)C1 [I-52],8
6,C[C@H](Oc1nc(-c2onc3c2CCC[C@@]32CCCc3sc(N)c(C#N)c32)nc2c1n(C)c(=O)n2[C@H]1CO[C@@H](C)C1)[C@@H]1CCCN1C [I-47],1
7,C[C@H](Oc1nc(-c2noc3c2CCC[C@@]32CCCc3sc(N)c(C#N)c32)nc2c1n(C)c(=O)n2[C@H]1CO[C@@H](C)C1)[C@@H]1CCCN1C [II-5],1

# Tested on: Ba/F3 cells KRAS G12V
# Experiment: Ba/F3 proliferation assay (KRAS G12V)
# Type: cell-based
# Details: Mus musculus, BaF3, 72 h, AlamarBlue viability
# Procedure: as §1, §2
row,SMILES,IC50 [nM]
1,C[C@H](Oc1nc(-c2noc3c2CCC[C@@]32CCCc3sc(N)c(C#N)c32)nc2c1n(C)c(=O)n2[C@@H]1CCOC1)[C@@H]1CCCN1C [II-2],2
2,C[C@H](Oc1nc(-c2noc3c2CCC[C@@]32CCCc3sc(N)c(C#N)c32)nc2c1CN(c1ncccn1)[C@@]21CCOC1)[C@@H]1CCCN1C [II-7b],37
3,C[C@H](Oc1nc(-c2noc3c2CCC[C@@]32SCCc3sc(N)c(C#N)c32)nc2c1COC[C@]21CCOC1)[C@@H]1CCCN1C [II-16],1
4,CO[C@H]1CCN(C)[C@@H]1[C@H](C)Oc1nc(-c2onc3c2CCC[C@@]32CCCc3sc(N)c(C#N)c32)nc2c1n(C)c(=O)n2[C@H]1COC[C@@H](C)C1 [I-51],2
5,CO[C@@H]1C[C@@H]([C@H](C)Oc2nc(-c3onc4c3CCC[C@@]43CCCc4sc(N)c(C#N)c43)nc3c2n(C)c(=O)n3[C@H]2COC[C@@H](C)C2)N(C)C1 [I-52],3

# Tested on: LOVO cells
# Experiment: LOVO CTG proliferation assay (120 h) (CRC, G13D)
# Type: cell-based
# Details: Homo sapiens
# Procedure: LOVO cells (ATCC No. CCL-229) are dispensed into black 384-well plates, flat and clear bottom (Greiner, PNr. 781091) at a density of 1000 cells per well in 60 μl DMEM (Sigma D6429)+10% FCS (fetal calf serum, HyClone, SH30084.03). Cells are incubated overnight at 37° C. in a humidified tissue culture incubator at 5% CO2. Compounds (10 mM stock in DMSO) are added at logarithmic dose series using the ECHO acoustic liquid handler system (Beckman Coulter), normalizing for added DMSO and including DMSO controls. All compound treatments are performed in technical duplicates. For the TO time point measurement, untreated cells are analyzed at the time of compound addition. Plates are incubated for 120 h, and cell viability is measured using CellTiter-Glo luminescent cell viability reagent (Promega product code G7570). Viability (stated as percent of control) is defined as relative luminescence units RLU of each well divided by the RLU of cells in DMSO controls. IC50 values are determined from viability measurements by non-linear regression using a four-parameter model.
# IC50 values of representative compounds according to the invention measured with these assays in the indicated cell lines are presented in Table 46.
row,SMILES,IC50 [nM]
1,C[C@H](Oc1nc(-c2noc3c2CCC[C@@]32CCCc3sc(N)c(C#N)c32)nc2c1n(C)c(=O)n2[C@@H]1CCOC1)[C@@H]1CCCN1C [II-2],8
2,C[C@H](Oc1nc(-c2noc3c2CCC[C@@]32CCCc3sc(N)c(C#N)c32)nc2c1CN(c1ncccn1)[C@@]21CCOC1)[C@@H]1CCCN1C [II-7b],130
3,C[C@H](Oc1nc(-c2noc3c2CCC[C@@]32SCCc3sc(N)c(C#N)c32)nc2c1COC[C@]21CCOC1)[C@@H]1CCCN1C [II-16],7
4,C[C@H](Oc1nc(-c2noc3c2CCC[C@@]32CCCc3sc(N)c(C#N)c32)nc2c1n(C)c(=O)n2[C@H]1CO[C@@H](C)C1)[C@@H]1CCCN1C [II-5],3

# Tested on: not listed separately
# Experiment: Plasma protein binding assay (PPB), equilibrium dialysis
# Type: in vitro ADME
# Details: bovine, 10% FCS in PBS, read-out: PPB 10% FCS (% fu)
# Procedure: Binding of test compounds to plasma was determined using equilibrium dialysis (ED) and quantitative mass spectrometry interfaced with liquid chromatography (LC-MS). In brief, ED was performed with dialysis devices consisting of two chambers separated by a semipermeable membrane with a molecular weight cut-off of 5-10 kg/mol. One chamber was filled with 10% FCS in PBS containing 1-10 μmol/L test compound and the other chamber was filled with phosphate-buffer saline (PBS) with or without dextran. The dialysis chamber was incubated for 3-5 hours at 37° C. After incubation, protein was precipitated from aliquots of each chamber and the concentration of test compound in the supernatant of the plasma-containing compartment (cserum) and of the buffer-containing compartment (cbuffer) was determined by LC-MS. The fraction of unbound test compound (not bound to plasma) (f) was calculated according to the following equation: […]
row,SMILES,fraction unbound
1,C[C@H](Oc1nc(-c2noc3c2CCC[C@@]32CCCc3sc(N)c(C#N)c32)nc2c1n(C)c(=O)n2[C@@H]1CCOC1)[C@@H]1CCCN1C [II-2],0.19
2,C[C@H](Oc1nc(-c2noc3c2CCC[C@@]32CCCc3sc(N)c(C#N)c32)nc2c1CN(c1ncccn1)[C@@]21CCOC1)[C@@H]1CCCN1C [II-7b],0.05
3,CO[C@H]1CCN(C)[C@@H]1[C@H](C)Oc1nc(-c2onc3c2CCC[C@@]32CCCc3sc(N)c(C#N)c32)nc2c1n(C)c(=O)n2[C@H]1COC[C@@H](C)C1 [I-51],0.07
4,CO[C@@H]1C[C@@H]([C@H](C)Oc2nc(-c3onc4c3CCC[C@@]43CCCc4sc(N)c(C#N)c43)nc3c2n(C)c(=O)n3[C@H]2COC[C@@H](C)C2)N(C)C1 [I-52],0.06
5,C[C@H](Oc1nc(-c2onc3c2CCC[C@@]32CCCc3sc(N)c(C#N)c32)nc2c1n(C)c(=O)n2[C@H]1CO[C@@H](C)C1)[C@@H]1CCCN1C [I-47],0.13
